# Measurements taken from PubChem BioAssay (NCI).
#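 Growth conditions: 96-well plates. Treatment: test compound, 48 hours, 5 concentrations. Analysis: linear interpolation between bracketing concentrations; unreached endpoints set to highest concentration. At the GI50, growth is halved. At the TGI there is no net growth.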
# Key:
# Test in all cases: NCI tumour cell line growth inhibition, 48 h
# [1] = tested on: HOP-92 NSCLC
# [2] = tested on: NCI-H226 lung
# [3] = tested on: A498 renal
# [4] = tested on: SF-539 CNS
# [5] = tested on: MCF7 breast
# [6] = tested on: KM12 colon
# [7] = tested on: MDA-MB-435
# [8] = tested on: SK-MEL-28 melanoma
# [9] = tested on: SR leukemia
# [10] = tested on: SF-295 CNS
# [11] = tested on: NCI-H23 lung
# [12] = tested on: A549 NSCLC
# [13] = tested on: OVCAR-8 ovarian
# [14] = tested on: M14 melanoma
# [15] = tested on: NCI-H460 lung
# [16] = tested on: UACC-257 melanoma
# [17] = tested on: NCI-H522 lung
# [18] = tested on: UACC-62 melanoma
# [19] = tested on: IGROV1 ovarian
# [20] = tested on: HCT-116 colon
# [21] = tested on: MOLT-4 leukemia
# [22] = tested on: K-562 leukemia
# [23] = tested on: OVCAR-4 ovarian
# [24] = tested on: MDA-MB-231 breast
# [25] = tested on: NCI/ADR-RES ovarian
# [26] = tested on: HCC-2998 colon
# [27] = tested on: UO-31 renal
# [28] = tested on: CCRF-CEM leukemia
# [29] = tested on: COLO 205 colon
# [30] = tested on: OVCAR-3 ovarian
# [31] = tested on: BT-549 breast
# [32] = tested on: HCT-15 colon
# [33] = tested on: SK-OV-3 ovarian
# [34] = tested on: SNB-19 CNS
# [35] = tested on: LOX IMVI melanoma
# [36] = tested on: T-47D breast
# [37] = tested on: 786-0 renal
# [38] = tested on: SNB-75 CNS
# [39] = tested on: SK-MEL-5 melanoma
# [40] = tested on: MALME-3M melanoma
# [41] = tested on: DU-145 prostate
# [42] = tested on: HT29 colon
# [43] = tested on: HOP-62 NSCLC
# [44] = tested on: SW-620 colon
# [45] = tested on: OVCAR-5 ovarian
# [46] = tested on: RPMI-8226 leukemia
# [47] = tested on: U251 CNS
# [48] = tested on: ACHN renal
# [49] = tested on: SF-268 CNS
# [50] = tested on: RXF 393 renal
# [51] = tested on: SK-MEL-2 melanoma
# [52] = tested on: CAKI-1 renal
# [53] = tested on: HS 578T breast
# [54] = tested on: TK-10 renal
# [55] = tested on: SN12C renal
# [56] = tested on: HL-60(TB) leukemia
# [57] = tested on: PC-3 prostate
compound,measurement,setting,value
C#Cc1nc2ccccc2c(=O)[nH]1,GI50,[1],1140 nM
same,TGI,[1],2610 nM
same,GI50,[2],513 nM
same,TGI,[2],11700 nM
same,GI50,[3],1580 nM
same,TGI,[3],3260 nM
same,GI50,[4],345 nM
same,TGI,[4],1420 nM
same,GI50,[5],282 nM
same,TGI,[5],2750 nM
same,GI50,[6],1390 nM
same,TGI,[6],2940 nM
same,GI50,[7],510 nM
same,TGI,[7],2130 nM
same,GI50,[8],861 nM
same,TGI,[8],3420 nM
same,GI50,[9],311 nM
same,TGI,[9],2600 nM
same,GI50,[10],3720 nM
same,TGI,[10],20200 nM
same,GI50,[11],1690 nM
same,TGI,[11],4770 nM
same,GI50,[12],2960 nM
same,TGI,[12],12900 nM
same,GI50,[13],897 nM
same,TGI,[13],8190 nM
same,GI50,[14],1070 nM
same,TGI,[14],3060 nM
same,GI50,[15],1790 nM
same,TGI,[15],7660 nM
same,GI50,[16],505 nM
same,TGI,[16],3150 nM
same,GI50,[17],765 nM
same,TGI,[17],2180 nM
same,GI50,[18],286 nM
same,TGI,[18],1030 nM
same,GI50,[19],585 nM
same,TGI,[19],1700 nM
same,GI50,[20],247 nM
same,TGI,[20],716 nM
same,GI50,[21],316 nM
same,TGI,[21],994 nM
same,GI50,[22],544 nM
same,TGI,[22],20400 nM
same,GI50,[23],1380 nM
same,TGI,[23],2790 nM
same,GI50,[24],318 nM
same,TGI,[24],1490 nM
same,GI50,[25],927 nM
same,TGI,[25],8190 nM
same,GI50,[26],1600 nM
same,TGI,[26],3110 nM
same,GI50,[27],383 nM
same,TGI,[27],1610 nM
same,GI50,[28],237 nM
same,TGI,[28],721 nM
same,GI50,[29],818 nM
same,TGI,[29],2420 nM
same,GI50,[30],262 nM
same,TGI,[30],643 nM
same,GI50,[31],222 nM
same,TGI,[31],422 nM
same,GI50,[32],224 nM
same,TGI,[32],644 nM
same,GI50,[33],6540 nM
same,TGI,[33],40100 nM
same,GI50,[34],4190 nM
same,TGI,[34],18000 nM
same,GI50,[35],168 nM
same,TGI,[35],315 nM
same,GI50,[36],1360 nM
same,TGI,[36],3600 nM
same,GI50,[37],582 nM
same,TGI,[37],2120 nM
same,GI50,[38],1800 nM
same,TGI,[38],5160 nM
same,GI50,[39],633 nM
same,TGI,[39],2010 nM
same,GI50,[40],1230 nM
same,TGI,[40],3040 nM
same,GI50,[41],1630 nM
same,TGI,[41],8250 nM
same,GI50,[42],428 nM
same,TGI,[42],1640 nM
same,GI50,[43],1950 nM
same,TGI,[43],5640 nM
same,GI50,[44],291 nM
same,TGI,[44],1120 nM
same,GI50,[45],1040 nM
same,TGI,[45],2590 nM
same,GI50,[46],213 nM
same,TGI,[46],635 nM
same,GI50,[47],1660 nM
same,TGI,[47],4280 nM
same,GI50,[48],336 nM
same,TGI,[48],1320 nM
same,GI50,[49],1540 nM
same,TGI,[49],4570 nM
same,GI50,[50],249 nM
same,TGI,[50],871 nM
same,GI50,[51],2150 nM
same,TGI,[51],6190 nM
same,GI50,[52],1430 nM
same,TGI,[52],3470 nM
same,GI50,[53],1690 nM
same,TGI,[53],7120 nM
same,GI50,[54],546 nM
same,TGI,[54],11200 nM
same,GI50,[55],331 nM
same,TGI,[55],1260 nM
same,GI50,[56],260 nM
same,TGI,[56],807 nM
same,GI50,[57],674 nM
same,TGI,[57],2540 nM
